The values that follow come from article PMC8286840, “Identifying SARS-CoV-2 antiviral compounds by screening for small molecule inhibitors of Nsp3 papain-like protease” (Biochemical Journal, 2021).

Test [1] concerns the target T1, SARS-CoV-2 PLpro (nsp3 1564–1878) (Severe acute respiratory syndrome coronavirus 2, UniProt P0DTD1). In words: biochemical. The arrangement: FRET-quenched peptide (Pro3) cleavage by PLpro, 10 min pre-incubation, slope over 20 min, normalised to no-compound control. Conditions: high concentration screen, read-out: % of control remaining.
Test [2] concerns the target T1, SARS-CoV-2 PLpro (nsp3 1564–1878). The experiment in a line: biochemical. The arrangement: FRET-quenched peptide (Pro3) cleavage by PLpro, 10 min pre-incubation, slope over 20 min, normalised to no-compound control. Particulars: low concentration screen, read-out: % of control remaining.

SMILES strings stand for the structures. Where a name gives a salt, the structure may show the parent alone. Read-outs that look alike come from different tables or passages of the source. Where a SMILES comes first, the peptide text is derived from it. Bridges are numbered along the chain shown (N, C = ends). [ ]: non-standard residue; d: D form. 2Nal = N[C@@H](Cc1ccc2ccccc2c1)C(=O)O; Lys(iPr) = CC(C)NCCCC[C@H](N)C(=O)O

As to `CCCCn1c2ccc(O)cc2c2c3c(c(-c4ccccc4Cl)cc21)C(=O)NC3=O` [Wee1 Inhibitor II], the remaining activity at 3.75 µM in test [1] (Well no.=2685) stood at 88.5%. The remaining activity at 1.25 µM in test [2] (Well no.=2685) is 90.9%.
Take `CN(C)C(=O)N=NC(=O)N(C)C` [N,N,N',N'-Tetramethylazodicarboxamide]: the remaining activity at 3.75 µM in test [1] (Well no.=735) was determined as 98.5%. In addition, in test [2] (Well no.=735), the remaining activity at 1.25 µM was determined as 94.9%.
`CC(=O)Oc1ccccc1C(=O)Oc1ccc(CO[N+](=O)[O-])cc1` [NCX 4040]: in test [1] (Well no.=6087), the remaining activity at 3.75 µM turned out to be 99.2%. Besides, in test [2] (Well no.=6087), the remaining activity at 1.25 µM worked out at 99.1%.
On to `CC(C)NCCCC[C@H](NC(=O)[C@H]1CCC(=O)N[C@@H](Cc2ccccc2)C(=O)N[C@@H](Cc2ccc(O)cc2)C(=O)N[C@@H](CCCCNC(C)C)C(=O)N[C@H](CCCN=C(N)N)C(=O)N[C@@H](Cc2ccc3ccccc3c2)C(=O)NCC(=O)N1)C(N)=O` [LY2510924] (FY[Lys(iPr)][dR][2Nal]G[dE][Lys(iPr)]-NH2; lactam N-7), for which the remaining activity at 3.75 µM in test [1] (Well no.=8513) was found to be 102%. Also, the remaining activity at 1.25 µM in test [2] (Well no.=8513) came to 101%.
`CCCCCCCCCC(=O)O` [Decanoic acid]: the results for the remaining activity at 3.75 µM in test [1] (Well no.=4540) and in test [1] (Well no.=6973) were 95.8% and 107%, respectively. In addition, the results for the remaining activity at 1.25 µM in test [2] (Well no.=4540) and in test [2] (Well no.=6973) were 93.6% and 105%, respectively.
`CCC/N=C1\S/C(=C\c2ccc(OC[C@H](O)CO)c(Cl)c2)C(=O)N1c1ccccc1C` [Ponesimod]: the remaining activity at 3.75 µM in test [1] (Well no.=8001) came to 102%. In addition, the remaining activity at 1.25 µM in test [2] (Well no.=8001) is 106%.
Regarding `O=C1CC(c2c[nH]c3ccc(F)cc23)C(=O)N1` (stereo not shown) [PF-06840003], the remaining activity at 3.75 µM in test [1] (Well no.=8215) was 101%. Further, the remaining activity at 1.25 µM in test [2] (Well no.=8215) is 104%.
Take `CCCCC[C@H](O)/C=C/C1=C(CCCCCCC(=O)O)C(=O)CC1` [Prostaglandin B1]: the remaining activity at 3.75 µM in test [1] (Well no.=3088) was found to be 100%; in test [1] (Well no.=4469), 102%. Moreover, the remaining activity at 1.25 µM amounted to 99.1% in test [2] (Well no.=3088) and 102% in test [2] (Well no.=4469).
With `O=C(O)c1cc(/N=N/c2ccc(O)c(C(=O)O)c2)ccc1O` [Olsalazine (Disodium)], the remaining activity at 3.75 µM in test [1] (Well no.=7496) amounted to 92.2%. Further, the remaining activity at 1.25 µM in test [2] (Well no.=7496) came out at 93.9%.
With `Nc1c2c(nc3ccccc13)CCCC2O` (stereo not shown) [Hydroxytacrine], the remaining activity at 3.75 µM in test [1] (Well no.=1671) worked out at 103%. The remaining activity at 1.25 µM in test [2] (Well no.=1671) is 103%.
For `CCC(=O)O[C@@H](O[P@](=O)(CCCCc1ccccc1)CC(=O)N1C[C@H](C2CCCCC2)C[C@H]1C(=O)O)C(C)C` [Fosinopril], the remaining activity at 3.75 µM in test [1] (Well no.=1904) was 89.1%. In addition, the remaining activity at 1.25 µM in test [2] (Well no.=1904) came to 89.9%.
Regarding `CC(NC(=O)c1ccccc1/N=C/c1c(O)ccc2ccccc12)c1ccccc1` (stereo not shown) [Sirtinol], the remaining activity at 3.75 µM in test [1] (Well no.=4783) turned out to be 99.9%. Besides, the remaining activity at 1.25 µM in test [2] (Well no.=4783) amounted to 103%.
For `CCN(CC)CCNC(=O)c1c(C)[nH]c(/C=C2\C(=O)Nc3ccc(Cl)cc32)c1C` [SU11652], the remaining activity at 3.75 µM in test [1] (Well no.=2565) came to 93.7%. In addition, the remaining activity at 1.25 µM in test [2] (Well no.=2565) was found to be 93.6%.
For `COc1ccc(-n2c(SCC#N)nc3sc4c(c3c2=O)CCCC4)cc1` [Necrostatin-5], the remaining activity at 3.75 µM in test [1] (Well no.=6060) was 95.8%. Moreover, the remaining activity at 1.25 µM in test [2] (Well no.=6060) turned out to be 98.5%.
Turning to `C[C@@H](c1nc(-c2ccc(C#N)cc2)cs1)[C@](O)(Cn1cncn1)c1ccc(F)cc1F` [4-{2-[(1R,2R)-2-(2,4-difluorophenyl)-2-hydroxy-1-methyl-3-(1H-1,2,4-triazol-1-yl)propyl]-1,3-thiazol-4-yl}benzonitrile], in test [1] (Well no.=5644), the remaining activity at 3.75 µM came to 92.4%. The remaining activity at 1.25 µM in test [2] (Well no.=5644) was 90.9%.
As for `c1c2c(cc3c1OCO3)-c1cc3ccc4c(c3c[n+]1CC2)OCO4` [Coptisine (chloride)], in test [1] (Well no.=8071), the remaining activity at 3.75 µM is 101%. Moreover, the remaining activity at 1.25 µM in test [2] (Well no.=8071) came to 106%.
Regarding `CC(NC(C)(C)C)C(=O)c1cccc(Cl)c1` (stereo not shown) [Bupropion hydrochloride], in test [1] (Well no.=37), the remaining activity at 3.75 µM came out at 100%. In test [2] (Well no.=37), the remaining activity at 1.25 µM worked out at 101%.
Regarding `CCCCCCCC/C=C\CCCCCCCCCCCCCC(=O)O` [15(Z)-Tetracosenoic acid], the remaining activity at 3.75 µM in test [1] (Well no.=4504) came out at 98.5%. The remaining activity at 1.25 µM in test [2] (Well no.=4504) turned out to be 93.9%.
Regarding `CC(=O)NNC(=O)N1Cc2ccccc2Oc2ccc(Cl)cc21` [SC 19220], in test [1] (Well no.=1408), the remaining activity at 3.75 µM came to 100%. For the same compound, the remaining activity at 1.25 µM in test [2] (Well no.=1408) is 101%.
As for `C=C[C@](C)(O)CC[C@H]1C(=C)CC[C@H]2C(C)(C)CCC[C@]12C` [Manool], the remaining activity at 3.75 µM in test [1] (Well no.=3389) was 98.7%. The remaining activity at 1.25 µM in test [2] (Well no.=3389) was found to be 95.7%.
With `COc1cc(C=O)ccc1O` [Vanillin], the remaining activity at 3.75 µM in test [1] (Well no.=7455) was determined as 106%. The remaining activity at 1.25 µM in test [2] (Well no.=7455) worked out at 103%.
Consider `O=C(O)Cc1c[nH]c2ccccc12` [3-Indoleacetic acid], for which the remaining activity at 3.75 µM in test [1] (Well no.=6255) was determined as 113%. For the same compound, the remaining activity at 1.25 µM in test [2] (Well no.=6255) came to 108%.
Take `COCC(=O)NC/C=C/c1ccc2ncnc(Nc3ccc(Oc4ccc(C)nc4)c(C)c3)c2c1` [CP-724714]: the remaining activity at 3.75 µM in test [1] (Well no.=2837) turned out to be 103%. For the same compound, the remaining activity at 1.25 µM in test [2] (Well no.=2837) is 103%.
As for `C#C[C@]1(O)CC[C@H]2[C@@H]3CCc4cc(O)ccc4[C@H]3CC[C@@]21C` [Ethinyl Estradiol], the remaining activity at 3.75 µM in test [1] (Well no.=5333) is 98.6%. In addition, in test [2] (Well no.=5333), the remaining activity at 1.25 µM was 98.9%.
As to `C[C@H]1CC[C@]2(NC1)O[C@H]1C[C@H]3[C@@H]4CC[C@H]5C[C@@H](O)CC[C@]5(C)[C@H]4CC[C@]3(C)[C@H]1[C@@H]2C` [Tomatidine], the remaining activity at 3.75 µM in test [1] (Well no.=3186) was found to be 99.4%. In addition, the remaining activity at 1.25 µM in test [2] (Well no.=3186) amounted to 94.5%.
`COCc1c(C(C)C)nc(C(C)C)c(/C=C/[C@@H](O)C[C@@H](O)CC(=O)O)c1-c1ccc(F)cc1` [Cerivastatin]: in test [1] (Well no.=1571), the remaining activity at 3.75 µM stood at 93.5%. In addition, the remaining activity at 1.25 µM in test [2] (Well no.=1571) amounted to 91.1%.
As for `C[N+](C)(C)CCO` [Choline bromide], the remaining activity at 3.75 µM in test [1] (Well no.=93) is 97%. Also, the remaining activity at 1.25 µM in test [2] (Well no.=93) was 93.4%.
`COc1cc2cc(c1Cl)N(C)C(=O)C[C@H](OC(=O)[C@H](C)N(C)C(=O)CCC(C)(C)SSCCCC(=O)ON1C(=O)CCC1=O)[C@]1(C)O[C@H]1[C@H](C)[C@@H]1C[C@@](O)(NC(=O)O1)[C@H](OC)/C=C\C=C(\C)C2` [SPDB-DM4]: the remaining activity at 3.75 µM in test [1] (Well no.=7700) is 106%. Moreover, in test [2] (Well no.=7700), the remaining activity at 1.25 µM came to 106%.
For `O=C1C[C@@H](c2ccc(O)c(O)c2)Oc2cc(O)cc(O)c21` [Eriodictyol], the remaining activity at 3.75 µM in test [1] (Well no.=3259) worked out at 103%. Further, in test [2] (Well no.=3259), the remaining activity at 1.25 µM was determined as 104%.
For the compound `CCOC(=O)[C@@H](N)CCC(=O)N[C@@H](CSCc1ccccc1)C(=O)N[C@@H](C(=O)OCC)c1ccccc1` [Ezatiostat], in test [1] (Well no.=8366), the remaining activity at 3.75 µM turned out to be 90.3%. Also, the remaining activity at 1.25 µM in test [2] (Well no.=8366) stood at 91%.
